Experimental data reported in PubChem BioAssay (NCI).
Where “and” joins values, the source holds several entries; their conditions need not be identical. Equal entries are not always repeated.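 Following 48 hours of exposure in 96-well plates, responses at five concentrations were used to interpolate endpoints linearly. GI50 is the concentration that inhibits growth by half. TGI denotes the concentration required for complete inhibition of growth.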

Key:
Assay in all cases: NCI tumour cell line growth inhibition, 48 h
[1] = system: K-562 leukemia
[2] = system: MDA-MB-435
[3] = system: HCT-116 colon
[4] = system: OVCAR-8 ovarian
[5] = system: RPMI-8226 leukemia
[6] = system: UACC-62 melanoma
[7] = system: OVCAR-3 ovarian
[8] = system: T-47D breast
[9] = system: NCI-H460 lung
[10] = system: NCI-H522 lung

Structure (SMILES)	TGI [1] [µM]	TGI [2]	TGI [3]	TGI [4]	TGI [5]	TGI [6]	TGI [7]	TGI [8]	TGI [9]	TGI [10]	GI50 [1] [µM]	GI50 [2] [µM]	GI50 [3] [µM]	GI50 [4]	GI50 [5] [µM]	GI50 [6]	GI50 [7] [µM]	GI50 [8] [µM]	GI50 [9]	GI50 [10] [µM]
O=c1[nH]c(=O)n(COC(CO)CO)cc1-c1ccccc1	> 100	> 100 µM	> 100 µM	> 100 µM	> 100 µM	> 100 µM	> 100 µM	> 100 µM	> 100 µM	> 100 µM										
N#C/C(=C\c1ccc2[nH]ccc2c1)C(=O)NCCCCNC(=O)/C(C#N)=C/c1ccc2[nH]ccc2c1	> 31.6	> 10 µM	> 31.6 µM	> 31.6 µM	> 10 µM	> 31.6 µM	> 31.6 µM	> 10 µM	> 31.6 µM	> 31.6 µM										
CN(CCCCCl)P(=O)(OCc1ccc([N+](=O)[O-])o1)OCC1OC(n2ccc(N)nc2=O)C(O)C1O (stereo not drawn)	> 100	8.21 µM	25.9 µM	> 100 µM	6.07 µM	40.6 µM	17.2 µM	7.71 µM	68.3 µM	24.3 µM										
CCOC(=O)NC(=S)N(CC(=O)c1cc(OC)c(OC)c(OC)c1)c1ccc(Cl)cc1	> 100	> 100 µM	> 100 µM	> 100 µM	> 100 µM	> 100 µM	> 100 µM	72.9 µM	> 100 µM	> 100 µM	51.8	> 100	72.3	> 100 µM	30.2	55.2 µM	> 100	23.5	52.5 µM	27.9
C=C1c2nc3ccccc3n2C=C(c2ccc(C)cc2)N1c1ccc(OC)cc1	> 100	49.2 µM	> 100 µM	> 100 µM	> 58.5 µM	> 100 µM	> 100 µM	> 100 µM	> 100 µM	> 77.7 µM										
Cn1c(=O)c2c(nc3[nH]c(=O)c(Br)cn32)n(C)c1=O	> 100	> 100 µM	> 100 µM	> 100 µM	> 100 µM	> 100 µM	> 100 µM	> 100 µM	> 100 µM	> 100 µM										
C[n+]1cccc2ccc3cccnc3c21	> 100	> 100 µM	> 100 µM	> 100 µM	> 100 µM	> 100 µM	> 100 µM	96.5 µM	> 100 µM	35.1 µM										
C/C(=C1\N=C(c2ccccc2)OC1=O)c1ccccc1	> 100	> 100 µM	> 100 µM	> 100 µM	> 100 µM	> 100 µM	> 100 µM	> 100 µM	> 100 µM	> 100 µM										
Cc1nc(NC(C)(CO)CO)nc(N/N=C/c2ccc(Cl)cc2)c1C(=O)Nc1ccc(Cl)cc1	> 100	> 100 µM	> 100 µM	> 100 µM	> 100 µM	> 100 µM	> 100 µM	> 100 µM	> 100 µM	> 100 µM										
Nc1[nH]c(=O)nc2c1ncn2C1OC(CO)C(O)C1O (stereo not drawn)	> 100	> 100 µM	> 100 µM	74.4 µM	> 100 µM	> 100 µM	> 100 µM	70.3 µM	> 100 µM	> 100 µM										
COC(=O)C1OC(O[C@H]2CC[C@]3(C)[C@H]4CC=C5[C@@H]6CC(C)(C)CC[C@]6(C(=O)OC6OCC(O)C(O)C6OC6OC(C)C(OC7OCC(O)C(O)C7O)C(O)C6O)[C@H](O)C[C@@]5(C)[C@]4(C)CC[C@H]3C2(C)C)C(O)C(O)C1O (stereo partly drawn)	> 100	3.78 µM and 5.21 µM	> 100 µM and 17.4 µM	26.8 µM and 8.47 µM	> 100 µM and 21.3 µM	8.55 µM and 21.7 µM	> 78.1 µM and 25 µM	> 100 µM and 27.2 µM	> 100 µM and 33.4 µM	6.84 µM and 5.14 µM				11.8 µM and 2.76 µM		2.89 µM and 7.04 µM			34 µM and 16.9 µM	
N[C@@H](CCC(=O)NC(Cc1ccccc1)C(=O)NCP(=O)(O)O)C(=O)O (stereo partly drawn)	> 100	> 100 µM	> 100 µM	> 100 µM	> 100 µM	> 100 µM	> 100 µM	> 100 µM	> 100 µM	> 100 µM										
ClC1=NN=C(c2c[nH]c3ccccc23)CC1NCc1ccccc1 (stereo not drawn)	> 100	> 100 µM	> 100 µM	> 100 µM	> 100 µM	> 100 µM	> 100 µM	> 100 µM	> 100 µM	> 100 µM										
COC1(CC[C@@H](C)COC2OC(CO)C(O)C(O)C2O)OC2C[C@H]3[C@@H]4CC[C@H]5C[C@@H](OC6OC(CO)C(OC7OC(CO)C(O)C(O)C7O)C(O)C6OC6OC(C)C(O)C(O)C6O)[C@H](O)C[C@]5(C)[C@H]4CC[C@]3(C)C2[C@@H]1C (stereo partly drawn)	7.81	3.5 µM	3.67 µM	3.75 µM	4.58 µM	3.45 µM	3.3 µM	9.01 µM	9.43 µM	4.63 µM										
Oc1ccc(C(O)C2CCCCN2)cc1O (stereo not drawn)	> 100	> 100 µM	> 100 µM	> 100 µM	> 100 µM	> 100 µM	> 100 µM	54.3 µM	> 100 µM	> 100 µM										
O=S(=O)(Nc1nc2ccccc2nc1N1CCCCCC1)c1ccccc1	> 100	64.6 µM	> 100 µM	> 100 µM	> 100 µM	52.9 µM	36.5 µM	> 100 µM	33.5 µM	57.1 µM										
N#Cc1c(NC(=S)Nc2ccc(Cl)cc2)sc2c1CCN(N1CCc3c(sc(NC(=S)Nc4ccc(Cl)cc4)c3C#N)C1)C2	> 100	> 100 µM	> 100 µM	88.5 µM	> 100 µM	41.8 µM	> 100 µM	> 100 µM	> 100 µM	> 100 µM										
